Literature values in patent publication US20260217749A1, “METAL COMPLEX COMPOUNDS AS PHOTOSENSITIZERS FOR PHOTODYNAMIC THERAPY” (UNIVERSITAT DE BARCELONA, priority 2023, published 2026).

System: SK-MEL-28 melanoma cells
Conditions: red light irradiation (625 nm)

IC50: 2300 nM
Structure (SMILES): Cc1ccnc(-c2cc(C)ccn2)c1.Cc1ccnc(-c2cc(C)ccn2)c1.[Cl-].[Cl-].[Ru+2].c1csc(-c2ccc(-c3ccc(-c4nc5c6cccnc6c6ncccc6c5[nH]4)s3)s2)c1 [TLD-1433]
PI value: moderate
